Measured values as given in PubChem BioAssay (NCI).
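Five concentrations, 48 hours, 96-well plates. Definition used: TGI = concentration required for complete inhibition of growth.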

Legend:
Assay in all cases: NCI tumour cell line growth inhibition, 48 h
786-0 renal = system: 786-0 renal
A498 renal = system: A498 renal
A549 NSCLC = system: A549 NSCLC
ACHN renal = system: ACHN renal
CAKI-1 renal = system: CAKI-1 renal
CCRF-CEM leukemia = system: CCRF-CEM leukemia
DLD-1 colon = system: DLD-1 colon
DMS 114 small cell lung = system: DMS 114 small cell lung
DMS 273 small cell lung = system: DMS 273 small cell lung
EKVX NSCLC = system: EKVX NSCLC
HCC-2998 colon = system: HCC-2998 colon
HCT-116 colon = system: HCT-116 colon
HCT-15 colon = system: HCT-15 colon
HL-60(TB) leukemia = system: HL-60(TB) leukemia
HOP-18 NSCLC = system: HOP-18 NSCLC
HOP-62 NSCLC = system: HOP-62 NSCLC
HT29 colon = system: HT29 colon
IGROV1 ovarian = system: IGROV1 ovarian
K-562 leukemia = system: K-562 leukemia
KM12 colon = system: KM12 colon
KM20L2 colon = system: KM20L2 colon
LOX IMVI melanoma = system: LOX IMVI melanoma
LXFL 529 NSCLC = system: LXFL 529 NSCLC
M14 melanoma = system: M14 melanoma
M19-MEL melanoma = system: M19-MEL melanoma
MALME-3M melanoma = system: MALME-3M melanoma
MOLT-4 leukemia = system: MOLT-4 leukemia
NCI-H23 lung = system: NCI-H23 lung
NCI-H460 lung = system: NCI-H460 lung
OVCAR-4 ovarian = system: OVCAR-4 ovarian
OVCAR-5 ovarian = system: OVCAR-5 ovarian
OVCAR-8 ovarian = system: OVCAR-8 ovarian
RPMI-8226 leukemia = system: RPMI-8226 leukemia
RXF 393 renal = system: RXF 393 renal
RXF-631 renal = system: RXF-631 renal
SF-268 CNS = system: SF-268 CNS
SF-295 CNS = system: SF-295 CNS
SF-539 CNS = system: SF-539 CNS
SK-MEL-2 melanoma = system: SK-MEL-2 melanoma
SK-MEL-28 melanoma = system: SK-MEL-28 melanoma
SK-MEL-5 melanoma = system: SK-MEL-5 melanoma
SK-OV-3 ovarian = system: SK-OV-3 ovarian
SN12C renal = system: SN12C renal
SNB-19 CNS = system: SNB-19 CNS
SNB-75 CNS = system: SNB-75 CNS
SNB-78 CNS = system: SNB-78 CNS
SR leukemia = system: SR leukemia
SW-620 colon = system: SW-620 colon
TK-10 renal = system: TK-10 renal
U251 CNS = system: U251 CNS
UACC-257 melanoma = system: UACC-257 melanoma
UACC-62 melanoma = system: UACC-62 melanoma
UO-31 renal = system: UO-31 renal
XF 498 CNS = system: XF 498 CNS
COLO 205 colon = system: COLO 205 colon
HOP-92 NSCLC = system: HOP-92 NSCLC
NCI-H226 lung = system: NCI-H226 lung
NCI-H522 lung = system: NCI-H522 lung
OVCAR-3 ovarian = system: OVCAR-3 ovarian

CC(C)(C)c1cc(Cc2ccc([N+](C)(C)C)cc2)c(O)c(C(C)(C)C)c1
TGI (786-0 renal): 57.7 µM
TGI (A498 renal): > 100 µM
TGI (A549 NSCLC): > 100 µM
TGI (ACHN renal): > 100 µM
TGI (CAKI-1 renal): > 100 µM
TGI (CCRF-CEM leukemia): 29.1 µM
TGI (DLD-1 colon): > 100 µM
TGI (DMS 114 small cell lung): 20.2 µM
TGI (DMS 273 small cell lung): 22.2 µM
TGI (EKVX NSCLC): > 100 µM
TGI (HCC-2998 colon): 29.9 µM
TGI (HCT-116 colon): 31.5 µM
TGI (HCT-15 colon): > 100 µM
TGI (HL-60(TB) leukemia): 8.27 µM
TGI (HOP-18 NSCLC): 47.3 µM
TGI (HOP-62 NSCLC): 33.5 µM
TGI (HT29 colon): 32.7 µM
TGI (IGROV1 ovarian): 28.1 µM
TGI (K-562 leukemia): 28.1 µM
TGI (KM12 colon): 29.6 µM
TGI (KM20L2 colon): 74.8 µM
TGI (LOX IMVI melanoma): 30.6 µM
TGI (LXFL 529 NSCLC): 27.1 µM
TGI (M14 melanoma): 40.9 µM
TGI (M19-MEL melanoma): 26.6 µM
TGI (MALME-3M melanoma): 34.2 µM
TGI (MOLT-4 leukemia): 26.1 µM
TGI (NCI-H23 lung): 36.1 µM
TGI (NCI-H460 lung): 37.9 µM
TGI (OVCAR-4 ovarian): > 100 µM
TGI (OVCAR-5 ovarian): 59.7 µM
TGI (OVCAR-8 ovarian): 35.9 µM
TGI (RPMI-8226 leukemia): 31.9 µM
TGI (RXF 393 renal): 38.4 µM
TGI (RXF-631 renal): > 100 µM
TGI (SF-268 CNS): 28.5 µM
TGI (SF-295 CNS): 67.5 µM
TGI (SF-539 CNS): 30.5 µM
TGI (SK-MEL-2 melanoma): 30.2 µM
TGI (SK-MEL-28 melanoma): 25 µM
TGI (SK-MEL-5 melanoma): 22.9 µM
TGI (SK-OV-3 ovarian): 95.1 µM
TGI (SN12C renal): 28.7 µM
TGI (SNB-19 CNS): 25.9 µM
TGI (SNB-75 CNS): 22.1 µM
TGI (SNB-78 CNS): 31.3 µM
TGI (SR leukemia): 29.8 µM
TGI (SW-620 colon): 59.2 µM
TGI (TK-10 renal): 78.4 µM
TGI (U251 CNS): 25.4 µM
TGI (UACC-257 melanoma): 31.7 µM
TGI (UACC-62 melanoma): 27.9 µM
TGI (UO-31 renal): > 100 µM
TGI (XF 498 CNS): 25.9 µM

Nc1nc(=S)c2c(ncn2CC(O)CO)[nH]1 (stereo not given)
TGI (786-0 renal): > 100 µM
TGI (A498 renal): > 100 µM
TGI (A549 NSCLC): > 100 µM
TGI (ACHN renal): > 100 µM
TGI (CAKI-1 renal): > 100 µM
TGI (CCRF-CEM leukemia): > 100 µM
TGI (COLO 205 colon): > 100 µM
TGI (DLD-1 colon): > 100 µM
TGI (DMS 114 small cell lung): > 100 µM
TGI (DMS 273 small cell lung): > 100 µM
TGI (EKVX NSCLC): > 100 µM
TGI (HCT-116 colon): > 100 µM
TGI (HCT-15 colon): > 100 µM
TGI (HL-60(TB) leukemia): > 100 µM
TGI (HOP-18 NSCLC): > 100 µM
TGI (HOP-62 NSCLC): > 100 µM
TGI (HOP-92 NSCLC): > 100 µM
TGI (HT29 colon): > 100 µM
TGI (IGROV1 ovarian): > 100 µM
TGI (K-562 leukemia): > 100 µM
TGI (KM12 colon): > 100 µM
TGI (KM20L2 colon): > 100 µM
TGI (LOX IMVI melanoma): > 100 µM
TGI (LXFL 529 NSCLC): > 100 µM
TGI (M14 melanoma): > 100 µM
TGI (M19-MEL melanoma): > 100 µM
TGI (MALME-3M melanoma): > 100 µM
TGI (NCI-H226 lung): > 100 µM
TGI (NCI-H460 lung): > 100 µM
TGI (NCI-H522 lung): > 100 µM
TGI (OVCAR-3 ovarian): > 100 µM
TGI (OVCAR-4 ovarian): > 100 µM
TGI (OVCAR-5 ovarian): > 100 µM
TGI (OVCAR-8 ovarian): > 100 µM
TGI (RPMI-8226 leukemia): > 100 µM
TGI (RXF 393 renal): > 100 µM
TGI (RXF-631 renal): > 100 µM
TGI (SF-268 CNS): > 100 µM
TGI (SF-295 CNS): > 100 µM
TGI (SF-539 CNS): > 100 µM
TGI (SK-MEL-2 melanoma): > 100 µM
TGI (SK-MEL-28 melanoma): > 100 µM
TGI (SK-MEL-5 melanoma): > 100 µM
TGI (SK-OV-3 ovarian): > 100 µM
TGI (SN12C renal): > 100 µM
TGI (SNB-19 CNS): > 100 µM
TGI (SNB-75 CNS): > 100 µM
TGI (SNB-78 CNS): > 100 µM
TGI (SR leukemia): > 100 µM
TGI (SW-620 colon): > 100 µM
TGI (TK-10 renal): > 100 µM
TGI (U251 CNS): > 100 µM
TGI (UACC-257 melanoma): > 100 µM
TGI (UACC-62 melanoma): > 100 µM
TGI (UO-31 renal): > 100 µM
TGI (XF 498 CNS): > 100 µM
